14 compounds from PubChem BioAssay (NCI) can be followed below.

Test systems include 786-0 renal; A549 NSCLC; MALME-3M melanoma; MDA-N; NCI-H460 lung; OVCAR-3 ovarian; OVCAR-5 ovarian; SF-295 CNS; SK-MEL-2 melanoma; SK-MEL-5 melanoma; SK-OV-3 ovarian.
Common to all, as to test: NCI anticancer screen, dose series, 48 h

Each structure is given as a SMILES string.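 Where inhibition never reached the appropriate level, the endpoint shown equals the highest concentration tested. Otherwise, values were interpolated linearly from a five-concentration, 48-hour dose response in 96-well plates. At the TGI there is no net growth.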 Where a SMILES comes first, the peptide text is derived from it. The star is where a group is joined. Boc = CC(C)(C)OC(=O)* Bounds are passed on as bounds.

Regarding `O=S(=O)(c1ccccc1)n1c2ccc(Br)cc2c2nc3ccccc3nc21`, the TGI in the assay with 786-0 renal, in the assay on A549 NSCLC, in the assay with MALME-3M melanoma, in the assay on MDA-N, in the assay on NCI-H460 lung and with OVCAR-3 ovarian was greater than 100 µM each time. In addition, the TGI in the assay on OVCAR-5 ovarian, in the assay on SF-295 CNS, in the assay with SK-MEL-2 melanoma and with SK-MEL-5 melanoma was greater than 100 µM in each case.

As to `CCCCCCCCOC1C(O)C(O)C(O)C(O)C12CO2` (centres undefined), the TGI in the assay on 786-0 renal, with A549 NSCLC, in the assay on MALME-3M melanoma, in the assay on MDA-N, in the assay with NCI-H460 lung and with OVCAR-3 ovarian was greater than 100 µM throughout. The TGI in the assay with SF-295 CNS, in the assay with SK-MEL-2 melanoma and in the assay with SK-OV-3 ovarian was greater than 100 µM throughout.

For the compound `CCCSc1ccc2[nH]c(N3C(=O)/C(=C/c4ccco4)N=C3c3ccccc3)cc2c1`, the TGI with 786-0 renal is greater than 50 µM; in the assay on A549 NSCLC it was greater than 50 µM; with MALME-3M melanoma, greater than 50 µM; with MDA-N it was 20.1 µM; in the assay on NCI-H460 lung, greater than 50 µM; in the assay on OVCAR-3 ovarian, greater than 50 µM. Further, the TGI is greater than 50 µM with OVCAR-5 ovarian, 24.4 µM with SK-MEL-2 melanoma and 30.3 µM with SK-MEL-5 melanoma.

In the case of `[N-]=[N+]=C1N=CN=C1c1ncn[nH]1`, the TGI with 786-0 renal, in the assay with A549 NSCLC, with MALME-3M melanoma, in the assay on MDA-N, in the assay on OVCAR-3 ovarian and in the assay on SF-295 CNS was greater than 100 µM throughout. Also, the TGI in the assay on SK-MEL-2 melanoma, with SK-MEL-5 melanoma and in the assay with SK-OV-3 ovarian was greater than 100 µM throughout.

Regarding `CCC(CON(C)c1ccccc1)(SC)SC`, the TGI with 786-0 renal, with A549 NSCLC, with MALME-3M melanoma, in the assay with MDA-N, in the assay with NCI-H460 lung and in the assay on OVCAR-5 ovarian was greater than 100 µM in each case. Besides, the TGI with SF-295 CNS, in the assay with SK-MEL-2 melanoma, in the assay on SK-MEL-5 melanoma and in the assay with SK-OV-3 ovarian was greater than 100 µM in each case.

For `O=C1CC2(c3ccccc3)ON=C(c3ccccc3)N2c2ccccc2N1` (centres undefined), the TGI in the assay with 786-0 renal, with MALME-3M melanoma, with MDA-N, with NCI-H460 lung, in the assay with OVCAR-3 ovarian and in the assay with OVCAR-5 ovarian was greater than 100 µM each time. For the same compound, the TGI in the assay on SF-295 CNS was greater than 100 µM; in the assay on SK-MEL-2 melanoma, greater than 100 µM; with SK-OV-3 ovarian, 51.7 µM.

`Oc1ccc(-c2nc(-c3cccnc3)c(-c3ccc(Cl)cc3)[nH]2)cc1O`: the TGI in the assay with 786-0 renal was greater than 100 µM; in the assay with A549 NSCLC, 54.1 µM; with MALME-3M melanoma it was 27 µM; in the assay on MDA-N, 25.1 µM; in the assay on OVCAR-3 ovarian, 14.5 µM; in the assay with OVCAR-5 ovarian it was 35.3 µM. Moreover, the TGI in the assay with SF-295 CNS was determined as 29.8 µM; in the assay on SK-MEL-2 melanoma, 31.8 µM; in the assay on SK-MEL-5 melanoma, 27.6 µM; in the assay on SK-OV-3 ovarian, 25.5 µM.

For the compound `CC(=O)[C@@]1(C)CC2(CCN(C)CC2)OC1C` (some centres undefined), the TGI with 786-0 renal, with A549 NSCLC, in the assay on MALME-3M melanoma, in the assay on MDA-N, in the assay with NCI-H460 lung and with OVCAR-3 ovarian was greater than 100 µM each time. The TGI in the assay on OVCAR-5 ovarian, with SF-295 CNS, with SK-MEL-5 melanoma and with SK-OV-3 ovarian was greater than 100 µM each time.

Take `C[C@]12CC[C@H]3[C@@H](CC=C4C[C@@H](N5CCCC5)CC[C@@]43C)[C@@H]1C[C@H](N1CCOCC1)[C@@H]2O`: the TGI in the assay with 786-0 renal, in the assay on A549 NSCLC, in the assay on MALME-3M melanoma, in the assay on MDA-N, with NCI-H460 lung and in the assay on OVCAR-3 ovarian was greater than 100 µM each time. For the same compound, the TGI in the assay on OVCAR-5 ovarian, in the assay with SF-295 CNS, in the assay with SK-MEL-5 melanoma and in the assay on SK-OV-3 ovarian was greater than 100 µM each time.

On to `COC(=O)C1Cc2c(OC)ccc(OC)c2CC(C(=O)OC)C1=O` (centres undefined), for which the TGI in the assay with 786-0 renal, in the assay on A549 NSCLC, in the assay on MALME-3M melanoma, with MDA-N, with NCI-H460 lung and in the assay on OVCAR-3 ovarian was greater than 100 µM in each case. In addition, the TGI in the assay on OVCAR-5 ovarian, with SF-295 CNS, in the assay with SK-MEL-5 melanoma and with SK-OV-3 ovarian was greater than 100 µM each time.

With `CCC12CCCN(Cc3ccccc3)C1c1c([nH]c3ccccc13)C(C(=O)OC)C2` (centres undefined), the TGI in the assay on 786-0 renal, in the assay with A549 NSCLC, in the assay on MALME-3M melanoma, with MDA-N, with OVCAR-3 ovarian and in the assay with OVCAR-5 ovarian was greater than 10 µM in each case. The TGI in the assay with SF-295 CNS, with SK-MEL-5 melanoma and with SK-OV-3 ovarian was greater than 10 µM in each case.

Turning to `Nn1c(COc2cccc(OCc3n[nH]c(=S)n3N)c2)n[nH]c1=S`, the TGI in the assay on 786-0 renal, with A549 NSCLC, in the assay on MALME-3M melanoma, in the assay with MDA-N, in the assay with NCI-H460 lung and with OVCAR-3 ovarian was greater than 100 µM in each case. Besides, the TGI in the assay on OVCAR-5 ovarian, with SF-295 CNS, with SK-MEL-2 melanoma and with SK-OV-3 ovarian was greater than 100 µM throughout.

In the case of `COC(=O)C(Cc1c[nH]c2ccccc12)NC(=O)C(Cc1c[nH]c2ccccc12)NC(=O)C(Cc1c[nH]c2ccccc12)NC(=O)C(Cc1c[nH]c2ccccc12)NC(=O)C(Cc1c[nH]c2ccccc12)NC(=O)C(Cc1c[nH]c2ccccc12)NC(=O)OC(C)(C)C` (centres undefined) (Boc-WWWWWW-OMe; configuration not given here), the TGI with 786-0 renal, with A549 NSCLC, with MALME-3M melanoma, in the assay with MDA-N, in the assay with NCI-H460 lung and with OVCAR-3 ovarian was greater than 100 µM each time. The TGI is greater than 100 µM in the assay on OVCAR-5 ovarian, greater than 100 µM in the assay on SK-MEL-2 melanoma and 70.5 µM in the assay on SK-MEL-5 melanoma.

Regarding `O=C(NCCC1([N+](=O)[O-])CCN(C(=O)c2ccccc2)CC1)c1ccccc1`, the TGI with 786-0 renal, in the assay on A549 NSCLC, in the assay with MALME-3M melanoma, in the assay with MDA-N, with NCI-H460 lung and with OVCAR-5 ovarian was greater than 100 µM throughout. Also, the TGI in the assay with SF-295 CNS, in the assay with SK-MEL-2 melanoma, in the assay with SK-MEL-5 melanoma and in the assay on SK-OV-3 ovarian was greater than 100 µM throughout.
